This is an account of results in US20030013658A1, “Small peptides and methods for treatment of asthma and inflammation” (Hisatek, LLC, priority 1997, published 2003).

Assay type in all cases: in vivo
Assay [1] has as its system OVA-sensitized/challenged mice. The experiment in a line: OVA allergen-induced airway inflammation mouse model, 28-day protocol, HK-X i.n. before each challenge. The note with it: p<0.004; FIG. 11. From the text: The above-described murine model reproduces key features of human asthma. Late-phase allergen-specific pulmonary disease was induced in normal BALB/c mice using ovalbumin (OVA) as allergen. One protocol includes immunization of mice with i.p. OVA on […] and 14, and intranasal (i.n.) administration of OVA on days 14, 25, 26, and 27.
In a mouse model of allergen-induced airway inflammation, the role of mast cell in airway eosinophil infiltration, mucus release, and hyper-responsiveness to methacholine was examined.
Materials were used as described above. Mice received an i.p. injection of 0.2 ml (100 ug) of OVA complexed with aluminum potassium sulfate (alum) on day 0 and 14. On days 14, 25, 26, and 27, mice were anesthetized with 0.2 ml i.p. of ketamine (0.44 mg/ml)/xylazine (6.3 mg/ml) in normal saline before receiving an intranasal (i.n.) dose of 100 ug OVA in 0.05 ml normal saline on days 25, 26, and 27. Lung tissue was obtained 24 hours after the last i.n. challenge on day 28. The control group received normal saline with alum i.p. on days 0 and 14 and normal saline without alum i.n. on days 14, 25, 26, and 27. To assess the effect of HK-X inhibition on OVA induced asthma, HK-X (10 ug/ml) was given i.n. 30 minutes before each i.n challenge on days 25, 26, and 27.
After tying off the left lung at the mainstem bronchus, the right lung was […] three times with 0.4 ml of normal saline, Bronchoalveolar lavage (BAL) fluid cells from a 0.05 ml aliquot of the pooled sample were counted using a hemocytometer and the remaining fluid centrifuged at 4° C. for 10 minutes at 200 g. After resuspension of the cell pellet in normal saline containing 10% BSA, BAL cell smears were made on glass slides. To stain eosinophils, dried slides were stained with Discombe's diluting fluid (0.05% aqueous eosin and 5% (v/v) acetone in distilled water) for 5-8 minutes, rinsed with water for 0.5 minutes and counterstained with 0.07 methylene blue for 2 minutes.
Following BAL, the trachea and left lung (upper and lower lobes) were obtained and fixed in 10% buffered formalin solution at 20° C. for1S hours. After the tissues were processed and embeded in paraffin, the tissues were cut into 5 μm sections and stained with Discombe's solution and counterstained with methylene blue as described above or stained with Hematoxylin and eosin. The eosinophil number per unit airway area (2200 μm^2) was determined by morphometry as previously described. Airway mucus was identified by a variety of staining methods, i.e., methylene blue, Hematoxylin and eosin, mucicarmine, toluidine blue, alcian blue, and alcian blue/periodic acid Schiff (PAS) reaction. Mucin was stained with mucicarmine solution; metanil yellow counterstain was employed. Mucin and sialic acid-rich non-sulfated mucosubstances were stained metachromatically with toluidine blue, pH 4.5. Acidic mucin and sulfated mucosubstances were stained with alcian blue, pH 2.5; nuclear fast red counterstain was used. Neutral and acidic mucosubstances were identified by alcian blue, pH 2.5 and PAS reaction. The degree of mucus plugging of the airways (0.5˜0.8 mm in diameter) also was assessed by morphometry. The percent occlusion of airway diameter by mucus was classified on a semiquantitative scale from 0 to +++++. The histologic and morphometric analyses protocol design were performed by individuals blinded to the protocol design.
Mucus glycoproteins in BAL fluid were assayed by slot blotting and PAS staining as described. Nitrocellulose membranes (0.2 um pore size; Schleicher & Schuell, Keene, N.H.) were wetted in distilled water and then in normal saline before placement in a Minifold II 72-well slot blot apparatus (Schleicher & Schuell). The BAL fluid samples (0.05 ml) and aliquots (0.05-0.75 ml) of a stock solution (2 ug/ml) of human respiratory mucin glycoprotein were blotted onto the nitrocellulose membranes by water suction vacuum, and mucus glycoproteins were visualized by PAS reaction. […]

In assay [2] the test system is OVA-sensitized/challenged mice. The description is as above. The note with it: p=0.0128 compared to OVA without zileuton; data not shown.
Assay [3] deals with OVA-sensitized/challenged mice. The experiment in a line: OVA-induced bronchial asthma mouse model (Standard/Resolution protocols, 1-3 month), airway eosinophils and mucus plugs. From the text:
The OVA-induced Bronchial Asthma Mouse Model for Inhibition of Mast Cell Degranulation
Reagents: Crystalline OVA was obtained from Pierce Chem. Co. (Rockford, Ill.) aluminum potassium sulfate (alum) from Sigma Chem. Co. (St. Louis, Mo.), pyrogen-free distilled water from Baxter, Healthcare Corporation (Deerfield, Ill.), 0.9% sodium chloride (normal saline) from Lymphomed (Deerfield, Ill.) and Trappsol™ HPB-L100 (aqueous hydroxypropyl beta cyclodextrin; 45 wt/vol % aqueous solution) from Cyclodextrin Technologies Development, Inc. (Gainesville, Fla.). The OVA (500 μg/ml in normal saline) was mixed with equal volumes of 10% (wt/vol) alum in distilled water. The mixture (pH 6.5 using 10 N NaOH) after incubation for 60 minutes at room temperature underwent centrifugation at 750 g for 5 minutes; the pellet was resuspended to the original volume in distilled water and used within one hour.
The selective 5-lipoxtgenase inhibitor, Zileuton (N-[1-benzo[b]thien-2-ylethyl]-N-hydroxyurea; J. Pharmacol Exp Ther. 1991; 256: 929-937), was kindly provided by Drs. Bell and George W. Carter (Abbott Laboratories, Abbott Part, Ill.). Zileuton was dissolved in Trappsol.™. Histatek, Inc. (Seattle, Wash.) provided the mast cell degranulation inhibitor, f-Met-Leu-Phe-Phe (“HK-X”).
Female BALB/c […] (6-8 wk of age at purchase; D and K, Seattle Wash.) were housed under conventional conditions for the studies.
Allergen Immunization/Challenge Protocols: Mice received an i.p. injection of 0.2 ml (100 μg) of OVA with alum on the different protocols of Standard (FIG. 5A) and Resolution (FIG. 5B) (J. Exp Med. 1996; 184: 1483-1494). According to the different protocols, mice were anesthetized with 0.2 ml i.p. of ketamine (0.44 mg/ml)/xylazine (6.3 mg/ml) in normal saline before receiving an intranasal (i.n.) does of 100 μg OVA in 0.05 ml normal saline and an i.n. dose of 50 μg OVA in 0.05 ml normal saline separately on different days. Two control groups were used. Accordingly, the first group received normal saline with alum i.p. and normal saline without alum i.n.; the second group received OVA with alum i.p., OVA without alum i.n., and normal saline, alone.
The trachea and left lung (the right lung is used for bronchoalveolar lavage (“BAL”)) were obtained and fixed in 10% neutral formaldehyde solution at room temperature for 6˜15 h. After being embedded in paraffin, the tissues were cut into 5-um sections and processed with the different staining or immunolabling further. Discombe's eosinophil staining was used for counting the cell numbers with the counterstain of methylene blue. The eosinophil number per unit airway area (2,200 μm^2) was determined by morphometry (J. Pathol. 1992; 166: 395-404; Am Rev Respir Dis. 1993; 147:448-456). Fibrosis was identified with the Masson's trichrome staining. Airway mucus was identified by the following staining method: methylene blue, hematoxylin and eosin, mucicarmine, alcian blue, and alcian blue/periodic acid-Schiff (PAS) reaction (Troyer, H., “Carbohydrates” in Principles and Techniques of Histochemistry, Little, Brown and Company, Boston, Mass., 1980: 89-121; Sheehan, D. C., et al., “Carbohydrates” in Theory and Practice of Histotechnology, Battle Press, Columbus, Ohio, 1980: 159-179) Mucin was stained with mucicarmine solution; metanil yellow counterstain was employed. Acidic mucin and sulfated mucosubstances were stained with alcian blue, pH 2.5; nuclear fast red counterstain was used. Neutral and acidic mucosubstances were identified by alcian blue, pH 2.5, and PAS reaction. The degree of mucus plugging of the airways (0.5-0.8 mm in diameter) was also assessed by morphometry. The percent occlusion of airway diameter by mucus was classified on a semiquantitative scale from 0 to 4+ as described in Figure Legends. The histologic and morphometric analyses were performed by individuals blinded to the protocol design. […]

Assay [4] has as its system mast cell degranulation induced by Compound 48/80. In words: Rat skin model: inhibition of Compound 48/80-induced mast cell degranulation (capillary permeability, trypan blue). The note with it: 0.15 μg Compound 48/80; for % Degranulation: percent mast cell degranulation produced by 48/80, 100 nanomoles peptide. On the procedure: The Rat Skin Model for Determination of Inhibition of Mast Cell Degranulation
In this model, the blood plasma of the experimental rat is labeled with the dye trypan blue. This soluble dye is carried in the bloodstream as a passive marker of plasma itself, and is excluded from live cells. Intact blood vessels, including the capillary system, retain this dye under normal circumstances. A compound, which induces degranulation of mast cells (resulting in leukotriene and histamine release), is injected into the skin to simulate allergen-induced degranulation. In these experiments, Compound 48/80 was used for this purpose. In the events following leukotriene and histamine release, capillary permeability is increased, and plasma, dyed blue, leaks from capillaries and dyes the skin surrounding the injection site blue. The area of bluing is a measure of the amount of Compound 48/80 injected.
A compound can be tested for “anti-leukotriene” and/or “anti-histamine” activity by mixing it with Compound 48/80 prior to injection.
The rat skin model was undertaken and validated. Various peptides were tested at a predetermined dose for anti-leukotriene and/or anti-histamine activity. The dose selected allowed a general comparison to f-Met-Leu-Phe, which was standard compound for comparison.
A “dose response” titration was performed for some compounds and compared with the standard compound. Observing serial decreases in the size areas of capillary permeability using serially smaller doses of the putative inhibitory compound validates the inhibition of leukotriene and/or histamine release observed in the initial predetermined dose test.
Reagents were obtained from Sigma or Aldrich, with the exception of ketamine, a veterinary anaesthetic that was obtained from various veterinary suppliers. The rats used were male Sprague-Dawley breed, 220-240 g at time of purchase from B&K International.
For the rat skin reaction, rats were anaesthetized with 0.25 ml 10 mg/ml ketamine. 1.0 ml trypan blue in saline (sterile filtered) was administered in a tail vein, and the back of the rat was shaved. Four intradermal injection sites per rat were used for test and control injections.
Compound 48/80 was prepared as a 1.5 mg/ml stock solution in saline. […] Serial dilutions in saline to working levels were prepared just prior to injection of each rat.
Peptides were prepared as a 23 mM stock solution in DMSO, and stored at −20° C. between experiments. At the time of use, the frozen stock solutions were thawed, and appropriate aliquots added to dilutions of Compound 48/80, along with appropriate amounts of DMSO, to result in the ratio of 5 μl DMSO to 0.1 ml aqueous Compound 48/80.
For injections, 0.1 ml […], +1/− test compounds were injected intradermally into anaesthetized, dyed, and shaved rats. Following a 15 minute incubation, the rats were sacrificed by cervical dislocation and the back skin was evulsed and placed on a light box. An image of the backlit skin was digitized using a CCD video capture camera and compatible hardware/software. The digitized image was analyzed using a scientific graphics analysis software package, and the areas of capillary permeability (bluing) were integrated and digital values were obtained for further analysis.
A dose response curve was generated using Compound 48/80 at various doses from ca. 0.01 μg through ca. 15 μg. […] A dose of 0.15 μg of Compound 48/80 was selected for conducting further tests.
Several f-Met-Leu peptides were tested for inhibition of induced degranulation in the rat skin model using 100 nanomoles of the test peptide and a dose of 0.15 μg Compound 48/80. An intrinsic zero-peptide-dose 48/80 control was included in each rat for each experiment, and the % of inhibition was expressed in relative terms to this control (0% inhibition). The percent mast cell degranulation produced by 48/80 was also determined.

For the molecule `CC(c1cc2ccccc2s1)N(O)C(N)=O` (stereo not shown) [Zileuton, N-[1-benzo[b]thien-2-ylethyl]-N-hydroxyurea, reference compound], the “decrease in number of eosinophils in the BAL fluid” value in assay [1] turned out to be 82%. For the same molecule, the “decrease in eosinophils recovered in the BAL fluid” value in assay [2] was found to be 89%. Also, the figures for the “AIRWAY INFLUX OF EOSINOPHILS (%)” value in assay [3] (1 month), in assay [3] (2 month) and in assay [3] (3 month) were 15.50%, 11.66% and 10.73%, respectively. The “% of plug of airway” value in assay [3] (28 days) turned out to be 16%. Moreover, the “PERCENTAGE OF EOSINOPHILS IN AIRWAY TISSUE” value in assay [3] (28 days of treatment) amounted to 15.8%. Further, the “MUCUS PLUG SCORE IN AIRWAYS” value in assay [3] (28 days, semiquantitative scale 0 to 4+) came to 1.3. Moreover, in assay [3] (through 1-3 month), the “reduction of airway eosinophils” value is listed as “could reduced eosinophils generally through 1-3 month”.

In the case of N-acetyl-Met-Leu-Phe [Example 3], the “% Degranulation” value in assay [4] worked out at 98%.

Take “f-Met-Leu-Phe [Example 2, reference compound]”: the “dose response, inhibition of degranulation induced by Compound 48/80” value in assay [4] (doses of 0 to about 230 nM peptide, FIG. 2 / FIG. 3) is listed as “Inhibition of degranulation induced by Compound 48/80 was clearly shown”. Moreover, the “% Degranulation” value in assay [4] is recorded as 60%.

Consider f-Met-Leu-Tyr [Example 10], for which the “% Degranulation” value in assay [4] is 30%.
